Assay results published in patent publication US20240228504A1, “SUBSTITUTED TRICYCLIC AMIDES, ANALOGUES THEREOF, AND METHODS USING SAME” (Arbutus Biopharma Corporation, priority 2020, published 2024).
pEC50: −log10 of the molar value.

Tested on: HBV rcDNA in HepDE19 cells
Assay: HepDE19 assay with bDNA quantitation of HBV rcDNA
Format: cell-based, hepatitis B virus
Details: Hepatitis B virus, HepDE19, HepDE19 assay, inhibition of rcDNA formation, bDNA quantitation; read-out: DE-19bDNA EC50

SMILES | pEC50
CN(C(=O)c1ccc2ncccc2c1)[C@@H]1COCc2[nH]c(=O)c3cc(F)c(F)cc3c21 [Compound 67, (S)-N-(8,9-Difluoro-6-oxo-1,4,5,6-tetrahydro-2H-pyrano[3,4-c]isoquinolin-1-yl)-N-methylquinoline-6-carboxamide] | 5.80
CN(C(=O)c1ccc2nncn2c1)[C@@H]1COCc2[nH]c(=O)c3cc(F)c(F)cc3c21 [Compound 70, (S)-N-(8,9-Difluoro-6-oxo-1,4,5,6-tetrahydro-2H-pyrano[3,4-c]isoquinolin-1-yl)-N-methyl-[1,2,4]triazolo[4,3-a]pyridine-6-carboxamide] | 4.66
CN(C(=O)c1cnc2ccccc2c1)[C@@H]1COCc2[nH]c(=O)c3cc(F)c(F)cc3c21 [Compound 71, (S)-N-(8,9-Difluoro-6-oxo-1,4,5,6-tetrahydro-2H-pyrano[3,4-c]isoquinolin-1-yl)-N-methylquinoline-3-carboxamide] | 6.48
CN(C(=O)c1ccc2nccnc2c1)[C@@H]1COCc2[nH]c(=O)c3cc(F)c(F)cc3c21 [Compound 72, (S)-N-(8,9-Difluoro-6-oxo-1,4,5,6-tetrahydro-2H-pyrano[3,4-c]isoquinolin-1-yl)-N-methylquinoxaline-6-carboxamide] | 5.42
CN(C(=O)c1ccc(C(F)(F)F)nc1)[C@@H]1COCc2[nH]c(=O)c3cc(F)c(F)cc3c21 [Compound 73, (S)-N-(8,9-Difluoro-6-oxo-1,4,5,6-tetrahydro-2H-pyrano[3,4-c]isoquinolin-1-yl)-N-methyl-6-(trifluoromethyl)nicotinamide] | 6.92
CN(C(=O)c1ccc(C(F)(F)F)c(F)c1)[C@@H]1COCc2[nH]c(=O)c3cc(F)c(F)cc3c21 [Compound 74, (S)-N-(8,9-Difluoro-6-oxo-1,4,5,6-tetrahydro-2H-pyrano[3,4-c]isoquinolin-1-yl)-3-fluoro-N-methyl-4-(trifluoromethyl)benzamide] | 8.00
CN(C(=O)c1ccc(Cl)c(F)c1)[C@@H]1COCc2[nH]c(=O)c3cc(F)c(F)cc3c21 [Compound 75, (S)-4-Chloro-N-(8,9-difluoro-6-oxo-1,4,5,6-tetrahydro-2H-pyrano[3,4-c]isoquinolin-1-yl)-3-fluoro-N-methylbenzamide] | 7.70
CN(C(=O)c1cc(F)c(F)c(F)c1)[C@@H]1COCc2[nH]c(=O)c3cc(F)c(F)cc3c21 [Compound 76, (S)-N-(8,9-Difluoro-6-oxo-1,4,5,6-tetrahydro-2H-pyrano[3,4-c]isoquinolin-1-yl)-3,4,5-trifluoro-N-methylbenzamide] | 7.05
CN(C(=O)c1cncc(F)c1)[C@@H]1COCc2[nH]c(=O)c3cc(F)c(F)cc3c21 [Compound 83, (S)-N-(8,9-Difluoro-6-oxo-1,4,5,6-tetrahydro-2H-pyrano[3,4-c]isoquinolin-1-yl)-5-fluoro-N-methylnicotinamide] | 5.15
CN(C(=O)c1cncc(Cl)c1)[C@@H]1COCc2[nH]c(=O)c3cc(F)c(F)cc3c21 [Compound 84, (S)-5-Chloro-N-(8,9-difluoro-6-oxo-1,4,5,6-tetrahydro-2H-pyrano[3,4-c]isoquinolin-1-yl)-N-methylnicotinamide] | 5.24
CN(C(=O)c1ccnc(F)c1)[C@@H]1COCc2[nH]c(=O)c3cc(F)c(F)cc3c21 [Compound 85, (S)-N-(8,9-Difluoro-6-oxo-1,4,5,6-tetrahydro-2H-pyrano[3,4-c]isoquinolin-1-yl)-2-fluoro-N-methylisonicotinamide] | 6.20
CN(C(=O)c1cccc(C(F)F)c1)[C@@H]1COCc2[nH]c(=O)c3cc(F)c(F)cc3c21 [Compound 86, (S)-N-(8,9-Difluoro-6-oxo-1,4,5,6-tetrahydro-2H-pyrano[3,4-c]isoquinolin-1-yl)-3-(difluoromethyl)-N-methylbenzamide] | 7.52
CN(C(=O)[C@@H](O)Cc1ccccc1)[C@@H]1COCc2[nH]c(=O)c3cc(F)c(F)cc3c21 [Compound 87, (S)-N-((S)-8,9-Difluoro-6-oxo-1,4,5,6-tetrahydro-2H-pyrano[3,4-c]isoquinolin-1-yl)-2-hydroxy-N-methyl-3-phenylpropanamide] | 5.49
